This note sets out measurements from patent US5922727A, “Antiviral substituted pyrimidinedione homocarbocyclic nucleoside derivatives and methods for the preparation thereof and compositions containing the same as active ingredients” (Samjin Pharmaceutical Co., Ltd, priority 1996, dated 1999).

Read-outs that look alike come from different tables or passages of the source. A value given as a limit tells only on which side of the number the result lay.

The subject of one data set is MT-4 cells. Description: cytotoxicity: viability of mock-infected MT-4 host cells (MTT method). The format is cell-based. Further details: unit not given here. The conditions noted are these: mock-infected MT-4 cells. How it is done: (§1) The anti-HIV assays were based on the inhibition of the virus-induced cytopathic effect in MT-4 cells as a described method in J. Med. Chem, 34, 357, 1991. Briefly, MT-4 cells were suspended in culture medium at 2.5×10^5 cells/ml and infected with 1000 CCID50 (50% cell culture infective dose) of HIV. Immediately, after virus infection, 100 μl of the cell suspension was brought into each well of a flat-bottomedmicrotitray containing various concentrations of the test compounds. After a 4 or 5 days incubation at 37° C., the number of viable cells was determined by the 3-(4,5-dimethylthiazol-2-yl)-2,5-diphenyltetrazolium bromide (MTT) method, as disclosed in J. Virol. Methods, 20, 309, 1988. The cytotoxicity of the compounds of the present invention was assessed in parallel with their antiviral activity. It was based on the viability of mock-infected host cells as determined by the MTT methods.

A further data set has as its system HIV. It counts as cell-based. The conditions noted are these: ratio CD50/ED50. How it is done:
as §1

Setting [1] is: marker a (undefined, shared with AZT^a).
Setting [2] is: marker b (undefined, shared with AZT^b).
[3] abbreviates: marker c (undefined, shared with AZT^c).
The mark [4] stands for this setting: marker d (undefined, shared with AZT^d).
Setting [5] is: marker e (undefined, shared with AZT^e).

For `Cc1cn([C@H]2C[C@H](N=[N+]=[N-])[C@@H](CO)O2)c(=O)[nH]c1=O` [AZT, reference compound], the CD50 in the data set with MT-4 cells (setting [1]) is 1.13; in the data set on MT-4 cells (setting [2]), 0.73; with MT-4 cells (setting [3]) it was 0.057; with MT-4 cells (setting [4]), 2.75; in the data set with MT-4 cells (setting [5]) it was 1.84; in the data set with MT-4 cells (no run marker) it was 1.58. In addition, the S.I. in the data set with HIV (setting [1]) is recorded as 5,825; with HIV (setting [2]), 1,123; with HIV (setting [3]), 83; with HIV (setting [4]) it was 5,500; with HIV (setting [5]) it was 3,172; in the data set with HIV (no run marker), 2,633.

For `CCc1c(Sc2cc(C)cc(C)c2)n(CC2CC=CC2)c(=O)[nH]c1=O` [Example 2, 1-[(Cyclopent-3-en-1-yl)methyl]-5-ethyl-6-(3,5-dimethylphenylthio)-2,4-pyrimidinedione], the CD50 with MT-4 cells (no run marker) was 7.86. The S.I. in the data set with HIV (no run marker) is recorded as 60,930.

Regarding `Cc1cc(C)cc(Sc2c(C(C)C)c(=O)[nH]c(=O)n2CC2CC=CC2)c1` [Example 4, 1-[(Cyclopent-3-en-1-yl)methyl]-5-isopropyl-6-(3,5-dimethylphenylthio) -2,4-pyrimidinedione], in the data set on MT-4 cells (setting [1]), the CD50 was found to be 11.40. The S.I. in the data set on HIV (setting [1]) is 2,111.

Consider `CCc1c(Sc2cc(C)cc(C)c2)n(CC2=CCC(CO)C2)c(=O)[nH]c1=O` (stereo not shown) [Example 7, 1-[(4-Hydroxymethylcyclopent-1-en-1-yl)methyl]-5-ethyl-6-(3,5-dimethylphenylthio)-2,4-pyrimidinedione], for which the CD50 with MT-4 cells (no run marker) came out at 7.69. The S.I. with HIV (no run marker) is listed as 3,004.

`Cc1cc(C)cc(Sc2c(C(C)C)c(=O)[nH]c(=O)n2CC2=CCC(CO)C2)c1` (stereo not shown) [Example 9, 1-[(4-Hydroxymethylcyclopent-1-en-1-yl)methyl]-5-isopropyl-6-(3,5-di-methylphenylthio)-2,4-pyrimidinedione] gave a CD50 with MT-4 cells (no run marker) of 8.51. The S.I. in the data set on HIV (no run marker) was 16,785.

Molecule `CCc1c(Oc2cc(C)cc(C)c2)n(CC2CC=CC2)c(=O)[nH]c1=O` [Example 14, 1-[(Cyclopent-3-en-1-yl)methyl]-5-ethyl-6-(3,5-dimethylphenoxy)-2,4-pyrimidinedione] came in with a CD50 in the data set with MT-4 cells (setting [2]) of 16.81. Moreover, the S.I. with HIV (setting [2]) was 400,238.

Turning to `Cc1cc(C)cc(Oc2c(C(C)C)c(=O)[nH]c(=O)n2CC2CC=CC2)c1` [Example 15, 1-[(Cyclopent-3-en-1-yl)methyl]-5-isopropyl-6-(3,5-dimethylphenoxy)-2,4-pyrimidinedione], the CD50 in the data set with MT-4 cells (setting [1]) amounted to 10.07. For the same molecule, the S.I. in the data set with HIV (setting [1]) is 1,624.

Consider `CCc1c(C(=O)c2cc(C)cc(C)c2)n(CC2CC=CC2)c(=O)[nH]c1=O` [Example 16, 1-[(Cyclopent-3-en-1-yl)methyl]-5-ethyl-6-(3,5-dimethylbenzoyl)-2,4-pyrimidinedione], for which, in the data set with MT-4 cells (setting [3]), the CD50 was 1.52.

Consider `Cc1cc(C)cc(C(=O)c2c(C(C)C)c(=O)[nH]c(=O)n2CC2CC=CC2)c1` [Example 17, 1-[(Cyclopent-3-en-1-yl)methyl]-5-isopropyl-6-(3,5-dimethylbenzoyl)-2,4-pyrimidinedione], for which, in the data set on MT-4 cells (setting [1]), the CD50 stood at 19.16. Moreover, the S.I. in the data set with HIV (setting [1]) is reported as 3,615.

Molecule `CCc1c(Oc2cc(C)cc(C)c2)n(CC2=CCC(CO)C2)c(=O)[nH]c1=O` (stereo not shown) [Example 18, 1-[(4-Hydroxymethylcyclopent-1-en-1-yl)methyl]-5-ethyl-6-(3,5-dimethyl-phenoxy)-2,4-pyrimidinedione] had a CD50 in the data set with MT-4 cells (no run marker) of 12.78. In addition, the S.I. in the data set with HIV (no run marker) is listed as 1,131.

Consider `CCc1c(Oc2cc(C)cc(C)c2)n(CC2=CCCC2CO)c(=O)[nH]c1=O` (stereo not shown) [Example 19, 1-[(5-Hydroxymethylcyclopent-1-en-1-yl)methyl]-5-ethyl-6-(3,5-dimethyphenoxy)-2,4-pyrimidinedione], for which the CD50 in the data set on MT-4 cells (no run marker) turned out to be 55.37. Further, in the data set with HIV (no run marker), the S.I. is listed as 1,384.

The molecule `Cc1cc(C)cc(Sc2c(C(C)C)c(=O)[nH]c(=O)n2CC2CCCC2)c1` [Example 20, 1-[(Cyclopentyl)methyl]-5-isopropyl-6-(3,5-dimethyphenylthio)-2,4-pyrimidinedione] returned a CD50 with MT-4 cells (setting [2]) of 11.38. In the data set with HIV (setting [2]), the S.I. is 24,264.

As to `Cc1cc(C)cc(Oc2c(C(C)C)c(=O)[nH]c(=O)n2CC2CCCC2)c1` [Example 21, 1-(Cyclopentyl)methyl-5-isopropyl-6-(3,5-dimethylphenoxy)-2,4-pyrimidinedione], the CD50 with MT-4 cells (setting [2]) worked out at 10.04. The S.I. in the data set with HIV (setting [2]) is on record as 3,089.

In the data set on MT-4 cells (setting [2]), `Cc1cc(C)cc(C(=O)c2c(C(C)C)c(=O)[nH]c(=O)n2CC2CCCC2)c1` [Example 22, 1-(Cyclopentyl)methyl-5-isopropyl-6-(3,5-dimethylbenzoyl)-2,4-pyrimidinedione] showed a CD50 of 9.97.

With `CCc1c(C(=O)c2cc(C)cc(C)c2)n(CC2CCCC2)c(=O)[nH]c1=O` [Example 23, 1-(Cyclopentyl)methyl-5-ethyl-6-(3,5-dimethylbenzoyl)-2,4-pyrimidinedione], in the data set with MT-4 cells (setting [4]), the CD50 is reported as above 100. Besides, the S.I. with HIV (setting [4]) is > 384,615.

Take `CCc1c(Sc2cc(C)cc(C)c2)n(CC2=CCC(CO)(CO)C2)c(=O)[nH]c1=O` [Example 25, 1-{[4-Bis(hydroxymethyl)cyclopent-1-en-1-yl]methyl}-5-ethyl-6-(3,5-dimethyl-phenylthio)-2,4-pyrimidinedione]: the CD50 in the data set on MT-4 cells (no run marker) stood at 14.64. For the same molecule, the S.I. in the data set on HIV (no run marker) is given as 2,762.

With `CCc1c(C(=O)c2cc(C)cc(C)c2)n(CCC2=CCCC2)c(=O)[nH]c1=O` [Example 35, 1-[2-(Cyclopent-1-en-1-yl)ethyl]-5-ethyl-6-(3,5-dimethylbenzoyl)-2,4-pyrimidinedione], the CD50 in the data set on MT-4 cells (setting [4]) stood at 28.58. Further, the S.I. in the data set on HIV (setting [4]) is 9,958.

For `CCc1c(C(=O)c2cc(C)cc(C)c2)n(CCC2CC=CC2)c(=O)[nH]c1=O` [Example 36, 1-[2-(Cyclopent-3-en-1-yl)ethyl]-5-ethyl-6-(3,5-dimethylbenzoyl)-2,4-pyrimidinedione], in the data set with MT-4 cells (setting [4]), the CD50 is on record as 10.30. In addition, the S.I. in the data set with HIV (setting [4]) is reported as 30,294.

Molecule `Cc1cc(C)cc(C(=O)c2c(C(C)C)c(=O)[nH]c(=O)n2CCC2CC=CC2)c1` [Example 37, 1-[2-(Cyclopent-3-en-1-yl)ethyl]-5-isopropyl-6-(3,5-dimethylbenzoyl)-2,4-pyrimidinedione] had a CD50 in the data set on MT-4 cells (setting [4]) of 9.23. In the data set with HIV (setting [4]), the S.I. is reported as 13,377.

The molecule `CCc1c(C(=O)c2cc(C)cc(C)c2)n(CCC2C=CCC2)c(=O)[nH]c1=O` (stereo not shown) [Example 40, 1-{2-(Cyclopent-2-en-1-yl)ethyl]-5-ethyl-6-(3,5-dimethylbenzoyl)-2,4-pyrimidinedione] showed a CD50 in the data set on MT-4 cells (setting [5]) of 7.11. The S.I. with HIV (setting [5]) is > 27,346.

Consider `Cc1cc(C)cc(Oc2c(C(C)C)c(=O)[nH]c(=O)n2CCC2C=CCC2)c1` (stereo not shown) [Example 42, 1-[2-(Cyclopent-2-en-1-yl)ethyl]-5-isopropyl-6-(3,5-dimethylphenoxy)-2,4-pyrimidinedione], for which the CD50 with MT-4 cells (setting [5]) came out at 7.53. The S.I. with HIV (setting [5]) is listed as 2,353.

In the data set with MT-4 cells (setting [5]), `CCc1c(C(=O)c2cc(C)cc(C)c2)n(CCC2CCCC2)c(=O)[nH]c1=O` [Example 44, 1-(2-Cyclopentyl)ethyl-5-ethyl-6-(3,5-dimethylbenzoyl)-2,4-pyrimidinedione] had a CD50 of 8.58. The S.I. in the data set on HIV (setting [5]) was 5,958.
